According to ChEMBL document CHEMBL1130869, “Peptide-based inhibitors of the hepatitis C virus serine protease” (Bioorg Med Chem Lett, 1998):
Starred links: 1 amine or outer side, 2 acyl side, 3 side chain; linkers in the order of their positions; H or OH if unused. Non-standard residues stand in square brackets, D forms with d. Residues, ends and D or L forms follow the SMILES beside them. Pen = CC(C)(S)[C@H](N)C(=O)O; Suc = O=C(CCC(=O)[*:2])[*:1]; Tle = CC(C)(C)[C@H](N)C(=O)O; Dap = NC[C@H](N)C(=O)O

Legend:
[1] = molecular target: NS3 (Hepatitis C virus, UniProt A3EZJ3); experiment: Inhibitory activity against NS3-4A pep protease; design: species or system Hepacivirus hominis
Chain of NS3 (A3EZJ3 whole entry): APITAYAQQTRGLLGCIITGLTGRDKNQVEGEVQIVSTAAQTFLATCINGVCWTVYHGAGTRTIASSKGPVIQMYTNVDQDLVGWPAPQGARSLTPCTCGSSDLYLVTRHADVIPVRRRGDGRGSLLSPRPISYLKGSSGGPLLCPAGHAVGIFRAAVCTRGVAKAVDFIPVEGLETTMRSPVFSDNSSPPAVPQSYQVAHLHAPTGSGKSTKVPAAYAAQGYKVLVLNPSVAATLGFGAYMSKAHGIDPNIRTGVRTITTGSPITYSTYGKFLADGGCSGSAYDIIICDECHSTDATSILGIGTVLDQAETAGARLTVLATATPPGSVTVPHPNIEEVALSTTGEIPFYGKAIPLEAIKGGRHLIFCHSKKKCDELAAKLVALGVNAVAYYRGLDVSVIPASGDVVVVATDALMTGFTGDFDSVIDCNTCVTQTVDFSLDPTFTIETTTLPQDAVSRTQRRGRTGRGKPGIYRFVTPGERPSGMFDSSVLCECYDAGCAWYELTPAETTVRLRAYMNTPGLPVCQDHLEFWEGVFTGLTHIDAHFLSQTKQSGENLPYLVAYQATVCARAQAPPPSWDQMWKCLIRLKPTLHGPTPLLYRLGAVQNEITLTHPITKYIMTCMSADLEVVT

[2] = molecular target: Hepatitis C virus serine protease, NS3/NS4A (Hepatitis C virus, UniProt A3EZI9+D2K2A8); experiment: The apparent Ki value against NS3-4Apep protease; format: protein-complex assay, Hepacivirus hominis; settings: read-out: Ki app
Chain of Hepatitis C virus serine protease, NS3/NS4A (D2K2A8 whole entry): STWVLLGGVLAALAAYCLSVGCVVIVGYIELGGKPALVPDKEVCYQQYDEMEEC
Chain of Hepatitis C virus serine protease, NS3/NS4A (A3EZI9 whole entry): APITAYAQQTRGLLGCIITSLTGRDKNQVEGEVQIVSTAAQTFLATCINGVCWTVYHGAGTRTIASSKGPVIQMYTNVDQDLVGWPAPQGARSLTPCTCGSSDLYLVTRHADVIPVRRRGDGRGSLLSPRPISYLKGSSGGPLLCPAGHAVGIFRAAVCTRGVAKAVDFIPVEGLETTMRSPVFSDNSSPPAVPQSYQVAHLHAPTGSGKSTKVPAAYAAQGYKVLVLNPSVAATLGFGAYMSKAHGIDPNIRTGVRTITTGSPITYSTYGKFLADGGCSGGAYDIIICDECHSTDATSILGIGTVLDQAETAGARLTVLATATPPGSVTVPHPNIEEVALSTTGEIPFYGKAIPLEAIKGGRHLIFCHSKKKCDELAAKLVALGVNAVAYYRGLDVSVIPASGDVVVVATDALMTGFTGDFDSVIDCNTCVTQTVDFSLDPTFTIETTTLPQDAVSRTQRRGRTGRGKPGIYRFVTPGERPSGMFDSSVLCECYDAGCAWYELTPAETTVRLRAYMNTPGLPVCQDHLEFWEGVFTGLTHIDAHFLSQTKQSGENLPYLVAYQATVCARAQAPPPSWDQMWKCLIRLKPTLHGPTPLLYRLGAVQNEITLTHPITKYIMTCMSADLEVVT

## CC[C@H](C)[C@H](NC(=O)[C@@H](NC(=O)[C@H](CC(=O)O)NC(C)=O)C(C)C)C(=O)N[C@H](C(=O)N1CCC[C@H]1C(=O)N[C@@H](CS)C(=O)O)C(C)C
[1]
  IC50: 52 µM

## CC[C@H](C)[C@H](NC(=O)[C@H](CC(=O)O)NC(=O)CCC(=O)O)C(=O)N[C@H](C(=O)N1CCC[C@H]1C(=O)N[C@@H](CS)C(=O)O)C(C)C
[1]
  IC50: 33 µM

## CC[C@H](C)[C@H](NC(=O)[C@H](CC(=O)O)NC(=O)[C@H](C)NC(C)=O)C(=O)N[C@H](C(=O)N1CCC[C@H]1C(=O)N[C@@H](CS)C(=O)O)C(C)C
[1]
  IC50: 200 µM

## CC[C@@H](C)[C@@H](NC(=O)[C@H](CC(=O)O)NC(=O)[C@H](CC(=O)O)NC(C)=O)C(=O)N[C@H](C(=O)N1CCC[C@H]1C(=O)N[C@@H](CS)C(=O)O)C(C)C
[1]
  IC50: 800 µM

## CC[C@H](C)[C@H](NC(=O)[C@H](CC(=O)O)NC(=O)[C@@H](CC(=O)O)NC(C)=O)C(=O)N[C@H](C(=O)N1CCC[C@H]1C(=O)N[C@@H](CS)C(=O)O)C(C)C
[1]
  IC50: 40 µM

## CC[C@H](C)[C@H](NC(=O)[C@H](CC(=O)O)NC(=O)[C@H](CC(=O)O)NC(C)=O)C(=O)N[C@H](C(=O)N1CCC[C@H]1C(=O)N[C@@H](CS)C(=O)O)C(C)C [listing 1 of 2 here]
[1]
  IC50: 28 µM

## CC[C@H](C)[C@H](NC(=O)[C@H](CC(=O)O)NC(=O)[C@H](CC(=O)O)NC(C)=O)C(=O)N[C@H](C(=O)N1CCC[C@H]1C(=O)N[C@@H](CS)C(=O)O)C(C)C [listing 2 of 2 here]
[1]
  IC50: > 1000 µM

## CC[C@H](C)[C@H](NC(=O)[C@H](CC(=O)O)NC(=O)[C@H](CC(=O)O)NC(C)=O)C(=O)N[C@H](C(=O)N1CCC[C@H]1C(=O)N[C@@H](CSC)C(=O)O)C(C)C (Ac-DDIVPC(Me)-OH)
[1]
  IC50: 160 µM

## CC[C@H](C)[C@H](NC(=O)[C@H](CC(=O)O)NC(=O)[C@H](CC(=O)O)NC(C)=O)C(=O)N[C@H](C(=O)N1CCC[C@H]1C(=O)N[C@@H](CN)C(=O)O)C(C)C (Ac-DDIVP[Dap]-OH)
[1]
  IC50: > 1000 µM

## CC[C@H](C)[C@H](NC(=O)[C@H](CC(=O)O)NC(=O)[C@H](CC(=O)O)NC(C)=O)C(=O)N[C@H](C(=O)N1CCC[C@H]1C(=O)N[C@H](C(=O)O)C(C)(C)S)C(C)C (Ac-DDIVP[Pen]-OH)
[1]
  IC50: 630 µM

## CC[C@H](C)[C@H](NC(=O)[C@@H](NC(=O)[C@H](CC(=O)O)NC(C)=O)C(C)(C)C)C(=O)N[C@H](C(=O)N1CCC[C@H]1C(=O)N[C@@H](CS)C(=O)O)C(C)C (Ac-D[Tle]IVPC-OH)
[1]
  IC50: 20 µM

## CC[C@H](C)[C@H](NC(=O)CCC(=O)O)C(=O)N[C@H](C(=O)N1CCC[C@H]1C(=O)N[C@@H](CS)C(=O)O)C(C)C (Suc-IVPC-OH)
[1]
  IC50: 830 µM

## CC[C@H](C)[C@H](NC(=O)C(CC(=O)O)NC(=O)[C@H](CC(=O)O)NC(C)=O)C(=O)N[C@H](C(=O)N1CCC[C@H]1C(=O)N[C@@H](CS)C(=O)O)C(C)C (single isomer, unassigned)
[1]
  IC50: 4 µM
[2]
  Ki: 0.6 µM

## CC[C@H](C)[C@H](NC(=O)[C@H](CC(=O)O)NC(=O)[C@H](CC(=O)O)NC(C)=O)C(=O)N[C@H](C(=O)N1CCC[C@H]1C(=O)NC(CS)C(=O)O)C(C)C (single isomer, unassigned)
[1]
  IC50: 330 µM

## CC[C@H](C)[C@H](NC(=O)[C@H](CC(=O)O)NC(=O)[C@H](CC(=O)O)NC(C)=O)C(=O)NC(C(=O)N1CCC[C@H]1C(=O)N[C@@H](CS)C(=O)O)C(C)C (single isomer, unassigned)
[1]
  IC50: 830 µM

## CC[C@H](C)[C@H](NC(=O)C(CC(=O)O)NC(=O)[C@H](C)NC(C)=O)C(=O)N[C@H](C(=O)N1CCC[C@H]1C(=O)N[C@@H](CS)C(=O)O)C(C)C (single isomer, unassigned)
[1]
  IC50: 200 µM

## CC[C@H](C)[C@H](NC(=O)C(CC(=O)O)NC(=O)CCC(=O)O)C(=O)N[C@H](C(=O)N1CCC[C@H]1C(=O)N[C@@H](CS)C(=O)O)C(C)C (single isomer, unassigned)
[1]
  IC50: 76 µM

## CC[C@H](C)[C@H](NC(=O)C(NC(=O)[C@H](CC(=O)O)NC(C)=O)C(C)C)C(=O)N[C@H](C(=O)N1CCC[C@H]1C(=O)N[C@@H](CS)C(=O)O)C(C)C (single isomer, unassigned)
[1]
  IC50: 7.5 µM

## Ac-DAIVPC-OH
[1]
  IC50: 140 µM

## Ac-DDAVPC-OH
[1]
  IC50: 580 µM

## Ac-DDIAPC-OH
[1]
  IC50: 890 µM

## Ac-DDIVAC-OH
[1]
  IC50: 93 µM

## Ac-DDIVPA-OH
[1]
  IC50: 710 µM

## Ac-DDIVPM-OH
[1]
  IC50: 500 µM

## Ac-DDIVPS-OH
[1]
  IC50: > 1000 µM

## Ac-DIVPC-OH
[1]
  IC50: 130 µM

## H-DDIVPC-OH
[1]
  IC50: 71 µM
[2]
  Ki: 14 µM

## H-GEAGDDIVPC-OH
[1]
  IC50: 52 µM
